Assay results: patent US10251408B2, “Catechin function enhancement method” (KYUSHU UNIVERSITY, NATIONAL UNIVERSITY CORPORATION, priority 2014, dated 2019)

Tests used:
[1] = tested on: Human multiple myeloma cell line U266; test: Anticancer effect, viable cells by trypan blue assay (24-well plates, FIG. 14-19); format: cell-based; conditions: 5 μM each, 96 hours; for enhancement of the anticancer effect (viable cells) of EGCG: combined with EGCG; for enhancement of the anticancer effect (viable cells) of EGCG 3″Me: combined with EGCG 3″Me; for enhancement of the anticancer effect (viable cells) of GCG: combined with GCG (gallocatechin gallate)
Protocol: Human multiple myeloma cell line U266 was subcultured and maintained in RPMI 1640 medium supplemented with 10% fetal bovine serum (FCS) under conditions of 37° C. and water vapor-saturated 5% CO2. The cells were maintained in the logarithmic growth phase. The RPMI 1640 medium used for culture was prepared as follows: per liter of ultrapure water, RPMI 1640 medium (10.4 g), HEPES (2.38 g), injectable penicillin G potassium (100,000 units), streptomycin sulfate injectable (100 mg) and NaHCO3 (2.0 g) were suspended and then filter-sterilized. Then, the RPMI 1640 medium was supplemented with FCS and used for cell culture. Per liter of ultrapure water, NaCl (8.0 g), KCl (0.2 g), Na2HPO4 (1.15 g) and KH2PO4 (0.2 g) were dissolved to prepare PBS, which was then sterilized in an autoclave.
Eriodictyol and structural analogs thereof, i.e., naringenin and hesperetin, as well as glycosides thereof, i.e., eriocitrin, naringin and hesperidin were each adjusted to 5 mM with 100% dimethyl sulfoxide (DMSO) and stored at −30° C. EGCG and (−)-gallocatechin gallate (GCG) were each adjusted to 5 mM with ultrapure water and stored at −30° C. EGCG 3″Me was adjusted to 5 mM with 10% DMSO dH2O and stored at −30° C.
U266 adjusted to 5×10^4 cells/mL in RPMI 1640 containing 1% FCS, SOD (5 U/mL) and catalase (200 U/mL) was seeded in 24-well plates and cultured for 96 hours in the presence of EGCG and analogs thereof or eriodictyol and analogs thereof added at a final concentration of 5 μM each. After culture, viable cells were counted by trypan blue assay.
For statistical processing of the experimental results, Student's test was used and P<0.05 was considered statistically significant in comparison with control data in the vehicle group.

[2] = tested on: Human multiple myeloma cell line U266; test: Cancer cell death induction, viable cells by trypan blue assay (96-well plate, FIG. 9); format: cell-based; conditions: 96 hours, in combination with EGCG, EGCG 3″Me or green tea extract
Protocol: Human multiple myeloma cell line U266 was subcultured and maintained in RPMI 1640 medium supplemented with 10% FCS under conditions of 37° C. and water vapor-saturated 5% CO2. The cells were maintained in the logarithmic growth phase. The RPMI 1640 medium used for culture was prepared as follows: per liter of ultrapure water, RPMI 1640 medium (10.4 g), HEPES (2.38 g), injectable penicillin G potassium (100,000 units), streptomycin sulfate injectable (100 mg) and NaHCO3 (2.0 g) were suspended and then filter-sterilized.
The lemon peel extract used in the experiment was prepared as follows. Peels (100 g) were collected with a grater from 6 lemons and 100% EtOH (100 mL) was added thereto, followed by mashing with a mortar. The mashed mixture was further strained through gauze to remove fibers and then filtered by gravity using a #1 paper filter and a funnel to remove precipitates, followed by centrifugation at 12000×g to collect the supernatant. The resulting ethanol extract of lemon was evaporated with an evaporator to volatilize the solvent, thereby obtaining an ethanol-extracted lemon fraction. This ethanol-extracted lemon fraction was dissolved again in DMSO to give a lemon extract. […] After culture, viable cells were counted by trypan blue assay.
To evaluate the effect of combined use of EGCG or a structural analog thereof or an EGCG-containing naturally occurring product and eriodictyol or a structural analog thereof or an eriodictyol-containing naturally occurring product, human multiple myeloma cell line U266 was adjusted to 5×10^4 cells/mL and seeded in a 96-well plate, and then cultured for 96 hours in the presence of EGCG and eriodictyol added at a final concentration of 5 μM each. After culture for 96 hours, viable cells were counted by trypan blue assay.

[3] = tested on: tail suspension test-induced disuse amyotrophy in mice; test: Tail suspension test-induced disuse amyotrophy (quadriceps femoris weight); format: in vivo, mouse; conditions: C57BL/6J mice; 5 mg/kg intragastric once a day; tail suspension for 10 days from day 7; FIG. 4
Protocol: Male C57BL/6J mice at 12 weeks of age were divided into 5 groups such that the average body weight was equal in all groups, i.e., a GR (ground) group, a TS (tail suspension) group, an EGCG group, an eriodictyol group, and an EGCG+eriodictyol group. From the beginning of grouping, the GR and TS groups received physiological saline, the EGCG group received EGCG and the eriodictyol group received eriodictyol (5 mg/kg) by intragastric administration, while the EGCG+eriodictyol group received EGCG and eriodictyol (5 mg/kg) by intragastric administration through a sonde. For 7 days from the beginning of grouping, all the groups were kept under normal conditions, and the TS, EGCG, eriodictyol, and EGCG+eriodictyol groups were then subjected to a tail suspension test. After the tail suspension test for 10 days (at 17 days after initiation of the experiment), all the mice were sacrificed by abdominal aortic puncture under isoflurane anesthesia, and the quadriceps femoris was excised from each mouse and measured for its weight. Each sample was administered daily throughout the experimental period. […] At 10 days after starting the tail suspension test, the mice were sacrificed by abdominal aortic puncture under isoflurane anesthesia, and the quadriceps femoris was excised from each mouse and measured for its weight.

Structure (SMILES)	enhancement of the anticancer effect (viable cells) of EGCG [1]	enhancement of the anticancer effect (viable cells) of EGCG 3″Me [1]	enhancement of the anticancer effect (viable cells) of GCG [1]	enhancement of the anticancer effect (viable cells) of EGCG, EGCG 3″Me or a green tea extract [2]	effect on amyotrophy (quadriceps femoris weight) [3]
C[C@@H]1O[C@@H](O[C@H]2[C@H](Oc3cc(O)c4c(c3)O[C@H](c3ccc(O)cc3)CC4=O)O[C@H](CO)[C@@H](O)[C@@H]2O)[C@H](O)[C@H](O)[C@H]1O [naringin]	remarkably enhance the anticancer effect				
COc1ccc([C@@H]2CC(=O)c3c(O)cc(O)cc3O2)cc1O [hesperetin]	remarkably enhance the anticancer effect	remarkably enhance the anticancer effect	remarkably enhance the anticancer effect	remarkably enhance the anticancer effect	
C[C@@H]1O[C@@H](OC[C@H]2O[C@@H](Oc3cc(O)c4c(c3)O[C@H](c3ccc(O)c(O)c3)CC4=O)[C@H](O)[C@@H](O)[C@@H]2O)[C@H](O)[C@H](O)[C@H]1O [eriocitrin]	remarkably enhance the anticancer effect	remarkably enhance the anticancer effect	remarkably enhance the anticancer effect		
O=C(O[C@@H]1Cc2c(O)cc(O)cc2O[C@@H]1c1cc(O)c(O)c(O)c1)c1cc(O)c(O)c(O)c1 [EGCG, epigallocatechin gallate]					no effect on amyotrophy
COc1ccc([C@@H]2CC(=O)c3c(O)cc(O[C@@H]4O[C@H](CO[C@@H]5O[C@@H](C)[C@H](O)[C@@H](O)[C@H]5O)[C@@H](O)[C@H](O)[C@H]4O)cc3O2)cc1O [hesperidin]	remarkably enhance the anticancer effect	remarkably enhance the anticancer effect	remarkably enhance the anticancer effect		
O=C1C[C@@H](c2ccc(O)cc2)Oc2cc(O)cc(O)c21 [naringenin]	remarkably enhance the anticancer effect	remarkably enhance the anticancer effect	remarkably enhance the anticancer effect	remarkably enhance the anticancer effect	
